Source: patent US20260234101A1, “COMPOUNDS, THEIR COMPOSITION AND THEIR USE AS NEMATICIDES” (priority 2023, published 2026)

Experiments:
[1] = test system: Root-knot nematodes (Meloidogyne spp), juveniles (J2); assay: Nematocidal activity against root-knot nematodes, 24 well bioassay plate, percent mortality; format: in vivo; conditions: 70-100 J2 juveniles per well, 22±2° C., 70±5% RH, dead/inactive counted at 24, 48, 72 and 96 hours, read-out: Rating (% Mortality)
Protocol: The compound to be tested (4 mg) was dissolved in 40 μl of DMSO to make 100,000 PPM concentration stock solution. The clear solution was obtained by vortexing. The nematode suspension (250 μl) having 70-100 juveniles (J2) of Root-knot nematodes Meloidogyne spp. pipetted out to each cell of 24 well bioassay plate. Sterile water (1 ml) was pipetted out in fresh 2.5 ml Eppendorf micro-centrifuge tubes. The desired concentration (500 ppm) of the compound was prepared by adding stock solution in 2.5 ml Eppendorf micro-centrifuge tubes. For each treatment 4 replications were maintained. The bioassay plates were incubated at 22±2° C. and 70±5% RH in humidity chambers.

[2] = Stability studies: storage at room temperature and accelerated storage condition, purity estimated by HPLC; format: physicochemical; conditions: properly packed material; for purity estimated by HPLC, Day 14, Condition 54° C. ± 2° C. / purity estimated by HPLC, Day Zero, Condition 54° C. ± 2° C.: 54° C. ± 2° C. (accelerated storage)
Excerpt: The compounds of present invention were stored under conditions as shown in below table [room temperature and on accelerated storage condition (ATS)] and the purity was estimated by HPLC. The properly packed material was subjected to the conditions mentioned in the table below.

Row | Compound | mortality at 500 ppm [1] | further results
1 | N=C(N)NCCC[C@H](/N=C/c1ccccc1C(F)(F)F)C(=O)O [Example 1, (E)-N^2-{[2-(trifluoromethyl)phenyl]methylidene}-L-arginine] | 70 to 100% | 
2 | N=C(N)NCCC[C@H](/N=C/c1cccc(C(F)(F)F)c1)C(=O)O [Example 2, (E)-N^2-{[3-(trifluoromethyl)phenyl]methylidene}-L-arginine] | 70 to 100% | purity estimated by HPLC, Day 14, Condition 25° C. ± 2° C. [2]: 99.70; purity estimated by HPLC, Day 14, Condition 54° C. ± 2° C. [2]: 99.55; purity estimated by HPLC, Day Zero, Condition 25° C. ± 2° C. [2]: 99.71; purity estimated by HPLC, Day Zero, Condition 54° C. ± 2° C. [2]: 99.60
3 | N=C(N)NCCC[C@H](/N=C/c1ccc(Cl)cc1O)C(=O)O [Example 3, (E)-N^2-[(4-chloro-2-hydroxyphenyl)methylidene]-L-arginine] | 50 to 69% | 
4 | N=C(N)NCCC[C@H](/N=C/c1c(O)cccc1Cl)C(=O)O [Example 4, (E)-N^2-[(6-chloro-2-hydroxyphenyl)methylidene]-L-arginine] | 50 to 69% | 
5 | N=C(N)NCCC[C@H](/N=C/c1cccc(F)c1O)C(=O)O [Example 5, (E)-N^2-[(3-fluoro-2-hydroxyphenyl)methylidene]-L-arginine] | 70 to 100% | 
6 | N=C(N)NCCC[C@H](/N=C/c1ccc(F)cc1O)C(=O)O [Example 6, (E)-N^2-[(4-fluoro-2-hydroxyphenyl)methylidene]-L-arginine] | 70 to 100% | 
7 | N=C(N)NCCC[C@H](/N=C/c1cc(F)ccc1O)C(=O)O [Example 7, (E)-N^2-[(5-fluoro-2-hydroxyphenyl)methylidene]-L-arginine] | 70 to 100% | 
8 | N=C(N)NCCC[C@H](/N=C/c1c(O)cccc1F)C(=O)O [Example 8, (E)-N^2-[(6-fluoro-2-hydroxyphenyl)methylidene]-L-arginine] | 70 to 100% | 
9 | COc1cccc(/C=N/[C@@H](CCCNC(=N)N)C(=O)O)c1O [Example 9, (E)-N^2-[(2-hydroxy-3-methoxyphenyl)methylidene]L-arginine] | 0 to 49% | 
10 | COc1ccc(O)c(/C=N/[C@@H](CCCNC(=N)N)C(=O)O)c1 [Example 10, (E)-N^2-[(2-hydroxy-5-methoxyphenyl)methylidene]-L-arginine] | 50 to 69% | 
11 | COc1cccc(O)c1/C=N/[C@@H](CCCNC(=N)N)C(=O)O [Example 11, (E)-N^2-[(2-hydroxy-6-methoxyphenyl)methylidene]-L-arginine] | 70 to 100% | purity estimated by HPLC, Day 14, Condition 25° C. ± 2° C. [2]: 99.00; purity estimated by HPLC, Day 14, Condition 54° C. ± 2° C. [2]: 98.85; purity estimated by HPLC, Day Zero, Condition 25° C. ± 2° C. [2]: 99.10; purity estimated by HPLC, Day Zero, Condition 54° C. ± 2° C. [2]: 99.20
12 | Cc1cc(O)cc(O)c1/C=N/[C@@H](CCCNC(=N)N)C(=O)O [Example 12, (E)-N^2-[(2,4-dihydroxy-6-methylphenyl)methylidene]-L-arginine] | 0 to 49% | 
13 | COc1ccc(/C=N/[C@@H](CCCNC(=N)N)C(=O)O)c(OC)c1 [Example 13, (E)-N^2-[(2,4-dimethoxyphenyl)methylidene]-L-arginine] | 0 to 49% | 
14 | N=C(N)NCCC[C@H](/N=C/c1cc(OC(F)(F)F)ccc1O)C(=O)O [Example 14, (E)-N^2-{[2-hydroxy-5-(trifluoromethoxy)phenyl]methylidene}-L-arginine] | 50 to 69% | 
15 | N=C(N)NCCC[C@H](/N=C/c1cc(F)cc(Cl)c1O)C(=O)O [Example 15, (E)-N^2-[(3-chloro-5-fluoro-2-hydroxyphenyl)methylidene]-L-arginine] | 0 to 49% | 
16 | COc1ccc(/C=N/[C@@H](CCCNC(=N)N)C(=O)O)cc1 [Example 16, (E)-N^2-[(4-methoxyphenyl)methylidene]-L-arginine] | 70 to 100% | 
17 | COc1ccc(/C=N/[C@@H](CCCNC(=N)N)C(=O)O)cc1O [Example 17, (E)-N^2-[(3-hydroxy-4-methoxyphenyl)methylidene]-L-arginine] | 0 to 49% | 

Row | Compound | mortality at 500 ppm [1] | further results
18 | COc1ccc(/C=N/[C@@H](CCCNC(=N)N)C(=O)O)cc1Cl [Example 18, (E)-N^2-[(3-chloro-4-methoxyphenyl)methylidene]-L-arginine] | 50 to 69% | 
19 | CSc1ccc(/C=N/[C@@H](CCCNC(=N)N)C(=O)O)cc1 [Example 19, (E)-N^2-{[4-(methylsulfanyl)phenyl]methylidene}-L-arginine] | 50 to 69% | 
20 | C=CCc1cc(/C=N/[C@@H](CCCNC(=N)N)C(=O)O)c(O)c(OC)c1 [Example 20, (E)-N^2-{[2-hydroxy-3-methoxy-5-(prop-2-en-1-yl)phenyl]methylidene}-L-arginine] | 70 to 100% | 
21 | C=CCc1cc(/C=N/[C@@H](CCCNC(=N)N)C(=O)O)c(OC)c(OC)c1 [Example 21, (E)-N^2-{[2,3-dimethoxy-5-(prop-2-en-1-yl)phenyl]methylidene}-L-arginine] | 70 to 100% | 
22 | C=CCc1cccc(/C=N/[C@@H](CCCNC(=N)N)C(=O)O)c1O [Example 22, (E)-N2-{[2-hydroxy-3-(prop-2-en-1-yl)phenyl]methylidene}-L-arginine] | 70 to 100% | purity estimated by HPLC, Day 14, Condition 25° C. ± 2° C. [2]: 99.50; purity estimated by HPLC, Day 14, Condition 54° C. ± 2° C. [2]: 99.30; purity estimated by HPLC, Day Zero, Condition 25° C. ± 2° C. [2]: 99.60; purity estimated by HPLC, Day Zero, Condition 54° C. ± 2° C. [2]: 99.63
23 | N=C(N)NCCC[C@H](/N=C/c1c[nH]c2ccccc12)C(=O)O [Example 23, (E)-N^2-[(1H-indol-3-yl)methylidene]-L-arginine] | 50 to 69% | 
24 | N=C(N)NCCC[C@H](/N=C/c1ccc2c(c1)OCO2)C(=O)O [Example 24, (E)-N^2-[(2H-1,3-benzodioxol-5-yl)methylidene]-L-arginine] | 50 to 69% | purity estimated by HPLC, Day 14, Condition 25° C. ± 2° C. [2]: 98.80; purity estimated by HPLC, Day 14, Condition 54° C. ± 2° C. [2]: 98.90; purity estimated by HPLC, Day Zero, Condition 25° C. ± 2° C. [2]: 98.90; purity estimated by HPLC, Day Zero, Condition 54° C. ± 2° C. [2]: 98.75
25 | N=C(N)NCCC[C@H](/N=C/c1ccco1)C(=O)O [Example 25, (E)-N^2-[(furan-2-yl)methylidene]-L-arginine] | 70 to 100% | 
26 | Cc1ccc(/C=N/[C@@H](CCCNC(=N)N)C(=O)O)o1 [Example 26, (E)-N^2-[(5-methylfuran-2-yl)methylidene]-L-arginine] | 70 to 100% | purity estimated by HPLC, Day 14, Condition 25° C. ± 2° C. [2]: 99.10; purity estimated by HPLC, Day 14, Condition 54° C. ± 2° C. [2]: 99.00; purity estimated by HPLC, Day Zero, Condition 25° C. ± 2° C. [2]: 99.20; purity estimated by HPLC, Day Zero, Condition 54° C. ± 2° C. [2]: 99.00
27 | N=C(N)NCCC[C@H](/N=C/c1ccc(CO)o1)C(=O)O [Example 27, (E)-N^2-{[5-(hydroxymethyl)furan-2-yl]methylidene}-L-arginine] | 50 to 69% | 
28 | N=C(N)NCCC[C@H](/N=C/c1cccc2ccccc12)C(=O)O [Example 28, (E)-N2-[(naphthalen-1-yl)methylidene]-L-arginine] | 50 to 69% | 
29 | N=C(N)NCCC[C@H](/N=C/c1cccnc1)C(=O)O [Example 29, (E)-N2-[(pyridin-3-yl)methylidene]-L-arginine] | 50 to 69% | 
30 | N=C(N)NCCC[C@H](/N=C/c1ccc2ccccc2c1)C(=O)O [Example 30, (E)-N2-[(naphthalen-2-yl)methylidene]-L-arginine] | 70 to 100% | purity estimated by HPLC, Day 14, Condition 25° C. ± 2° C. [2]: 99.65; purity estimated by HPLC, Day 14, Condition 54° C. ± 2° C. [2]: 99.45; purity estimated by HPLC, Day Zero, Condition 25° C. ± 2° C. [2]: 99.70; purity estimated by HPLC, Day Zero, Condition 54° C. ± 2° C. [2]: 99.65
31 | N=C(N)NCCC[C@H](/N=C/c1ccsc1)C(=O)O [Example 31, (E)-N2-[(thiophen-3-yl)methylidene]-L-arginine] | 50 to 69% | 
32 | C=CCc1cccc(/C=N/[C@@H](CCCNC(=N)N)C(=O)O)c1OC [Example 32, (E)-N2-{[2-methoxy-3-(prop-2-en-1-yl)phenyl]methylidene}-L-arginine] | 50 to 69% | 
33 | COc1cc(/C=N/[C@@H](CCCNC(=N)N)C(=O)O)cc2c1OCO2 [Example 33, (E)-N2-[(7-methoxy-2H-1,3-benzodioxol-5-yl)methylidene]-L-arginine] | 50 to 69% | 
34 | N=C(N)NCCC[C@H](/N=C/c1cccc2c1OCO2)C(=O)O [Example 34, (E)-N2-[(2H-1,3-benzodioxol-4-yl)methylidene]-L-arginine] | 50 to 69% | 
